These results are taken from US7834213B2, “Colorant compound and method of manufacturing the same as well as blue resist composition for use in color filter containing the same” (Canon Kabushiki Kaisha, priority 2005, dated 2010).

A short description of data set [1]: Evaluation of solubility of colorant compounds to cyclohexanone. It counts as physicochemical. Particulars: rank A/B/C.
Data set [2] is described as follows: Evaluation of spectral characteristics (UV visible absorption spectrum in cyclohexanone). It counts as physicochemical. As to conditions: for absorbance ratio: absorbance at largest absorption wavelength (500 to 650 nm) / absorbance at smallest absorption wavelength (400 to 500 nm), in cyclohexanone, room temperature; for λmax [nm]: absorption peak wavelength, dissolved in cyclohexanone, absorbance regulated to 2.0, room temperature. On the procedure: The colorant compounds represented by the formula (10) was dissolved in cyclohexanone and regulated so as to show an absorbance of 2.0. […] The absorption peak wavelength (λmax [nm]) was determined from the spectrum obtained by the observation. The spectral characteristics of the colorant compound were evaluated by the absorbance ratio of the largest absorption wavelength of the spectrum in the range of 500 to 650 nm to the smallest absorption wavelength of the spectrum in the range of 400 to 500 nm (the absorbance at the largest absorption wavelength/the absorbance at the smallest absorption wavelength).
While the lightness can be evaluated by means of the Y value of the XYZ standard […] system established by CIE (Commission Internationale de l'Eclairage), the lightness was evaluated by means of the absorbance ratio in this example because the Y value can vary remarkably when the hue is shifted slightly.

With `CCCCC(CC)CN(CC(CC)CCCC)S(=O)(=O)c1cccc(CN(CC)c2ccc(C(=C3C=CC(=[N+](CC)Cc4cccc(S(=O)(=O)N(CC(CC)CCCC)CC(CC)CCCC)c4)C=C3)c3ccccc3S(=O)(=O)[O-])cc2)c1` (centres unmarked) [compound (10)], in data set [1], the solubility result is on record as “A (The solubility to cyclohexanone is not lower than 10%.)”. In data set [2], the absorbance ratio was 433 and the “λmax [nm]” value is listed as 619 nm.

Take `CCCCNc1ccc(NCCCC)c2c1C(=O)c1ccccc1C2=O` [compound (28), C. I. Solvent Blue 35, reference compound]: in data set [2], the absorbance ratio was determined as 77 and the “λmax [nm]” value is 620 nm.
